The values below come from patent US20230339878A1, “SLC26A3 INHIBITORS AND USE THEREOF” (THE REGENTS OF THE UNIVERSITY OF CALIFORNIA, priority 2018, published 2023).

The structures appear in SMILES notation. Entries after “also recorded” stand apart in the source; their conditions may differ. Where two headings read alike, the source gives them in different places.

For test [1], the system named is oxalate nephropathy model in mice. The test is described as follows: Oxalate nephropathy model induced by high oxalate diet. The class given is in vivo. The method, then:
To induce oxalate nephropathy, mice were fed with high oxalate (0.67%) and low calcium (<0.01%) diet as described (Am J Physiol Renal Physiol 310: F785-F795, 2016). […] Mice were started high oxalate diet at Day 0 and treated with Compound A1 (5 mg/kg) or vehicle by oral gavage twice daily starting at Day 0. At Day 14, urine was collected for 24 hours in metabolic cages and centrifuged to examine urine sediment, then mice were euthanized and kidneys were used for histological analysis.
The kidneys harvested at Day 14 were examined for kidney damage using H & E staining, and for crystal deposition using polarized light microscopy.
Similar experiments in oxalate nephropathy model were performed using DRAinh-A270. For these experiments mice had 3-hour urine collections at Day 0, 7 and 14. High oxalate diet was started on Day 0 after initial urine collection and mice were given DRAinh-A270 or vehicle intraperitoneally twice daily for 14 days.

Another test has as its target T1, murine slc26a3 (Mus musculus, UniProt Q9WVC8).
T1 construct: host or cells: Fischer rat thyroid (FRT) cells expressing YFP, clonal line FRT-YFP-slc26a3
T1 sequence (Q9WVC8 1-757): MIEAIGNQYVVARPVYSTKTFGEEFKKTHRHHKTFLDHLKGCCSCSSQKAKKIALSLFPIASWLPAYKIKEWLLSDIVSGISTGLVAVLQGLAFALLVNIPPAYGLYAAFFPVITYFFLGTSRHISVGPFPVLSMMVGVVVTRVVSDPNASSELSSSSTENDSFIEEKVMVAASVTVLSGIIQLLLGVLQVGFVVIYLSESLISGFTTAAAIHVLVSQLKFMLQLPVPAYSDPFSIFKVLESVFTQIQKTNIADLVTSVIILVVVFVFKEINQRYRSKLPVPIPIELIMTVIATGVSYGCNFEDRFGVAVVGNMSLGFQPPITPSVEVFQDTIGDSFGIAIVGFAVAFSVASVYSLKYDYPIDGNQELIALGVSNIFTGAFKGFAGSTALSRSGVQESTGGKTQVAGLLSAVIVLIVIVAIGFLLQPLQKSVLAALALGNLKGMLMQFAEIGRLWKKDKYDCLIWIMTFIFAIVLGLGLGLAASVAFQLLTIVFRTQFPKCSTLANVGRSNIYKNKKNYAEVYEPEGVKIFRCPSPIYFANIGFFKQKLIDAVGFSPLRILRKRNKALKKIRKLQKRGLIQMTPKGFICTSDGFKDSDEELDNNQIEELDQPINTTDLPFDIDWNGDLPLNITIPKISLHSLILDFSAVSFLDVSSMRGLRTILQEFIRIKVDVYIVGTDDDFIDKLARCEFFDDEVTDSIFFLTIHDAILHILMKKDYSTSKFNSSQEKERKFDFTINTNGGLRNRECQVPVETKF
Briefly: slc26a3-mediated Cl-/I- exchange, YFP fluorescence quenching in FRT-YFP-slc26a3 cells. The test is classed as cell-based. Here is the method:
High-throughput screening to identify slc26a3 inhibitors using FRT-YFP- slc26a3 cells was done with a semi-automated Beckman Coulter (Indianapolis, IN) platform with FLUOstar OMEGA plate readers (BMG Labtech, Cary, NC), essentially as described for discovery of pendrin inhibitors. Initial screening was done of ~50,000 drug-like synthetic small molecules (ChemDiv, San Diego, CA) at a concentration of 25 µM using a Cl^-/I^- exchange protocol to assay slc26a3 function. Following initial screening, compound analogs were purchased (ChemDiv, San Diego, CA) to generate structure-activity data.
For the screening, FRT-YFP-slc26a3 cells were plated in 96-well black-walled, clear-bottom tissue culture plates (Corning Life Sciences, Tewksbury, MA) at a density of 20,000 cells/well and cultured for 48 hours until confluent. For screening, cells were washed twice in PBS and incubated for 10 min in 100 µl PBS containing test compounds prior to assay of slc26a3 function. Assays were done using a FLUOstar OMEGA plate reader (BMG Labtech, Cary, NC) over 12 s with initial fluorescence recorded over 1 s prior to addition of 100 µl NaI-substituted PBS (137 mM NaCl replaced by 137 mM NaI) to drive Cl^-/I^- exchange. The initial rate of Cl^-/I^- exchange was determined from fluorescence intensity by single exponential regression. All plates contained wells with negative (1 % DMSO) and positive (350 µM niflumic acid) controls.
Screening was done using an FRT cell line stably expressing murine slc26a3 and a halide-sensitive yellow fluorescent protein (FRT-YFP- slc26a3 cells). FRT cells were used because of their low intrinsic permeability to anions that are transported by slc26a3, and because of their good adherence and rapid growth on uncoated plastic. As diagrammed in FIG. 1A, slc26a3-mediated transport was assayed from the kinetics of YFP fluorescence quenching in response to extracellular addition of I^- to drive Cl^-/I^- exchange; transport inhibition reduces the rate of fluorescence decrease.

Test [2] deals with acute hyperoxaluria in mice. Briefly: Acute hyperoxaluria induced by oral sodium oxalate. The class given is in vivo. Here is the method: The efficacy of Compound A1 (DRAinh-A250) and DRAinh-A270 were tested in models of acute hyperoxaluria and oxalate nephropathy in mice. To induce acute hyperoxaluria, mice were given sodium oxalate ([…]) with or without 5 mg/kg Compound A1 by oral gavage at zero time and urine was collected for the next 4 hours in metabolic cages. A group of mice were used as controls and treated with vehicle only (no sodium oxalate or DRA inhibitor) and their urine was collected for 4 hours in metabolic cages as well. Using the 4 hour urine samples, urine oxalate/creatinine ratio was determined to quantify urinary oxalate excretion.
Similar experiments were performed for DRAinh-A270 in the acute hyperoxaluria model. For these experiments mice were first placed in metabolic cages to collect urine for 4 hours without any treatment. After this initial collection, the mice were treated with DRAinh-A270 (10 mg/kg) or vehicle intraperitoneally, and given sodium oxalate ([…], in water) by oral gavage at zero time. Urine was collected for the next 4 hours in metabolic cages.

[3] abbreviates: 5 mg/kg oral twice daily, Day 14.

On to `Cc1c(CC(=O)O)c(=O)oc2c(C)c(OCc3cccc(Br)c3)ccc12` [Compound A1], for which, in test [1] (setting [3]), the insoluble urine sediment entry was “greatly reduced; also recorded: greatly reduces urine sediment”; the “kidney damage, H & E staining” value is recorded as “prevention of kidney damage; also recorded: prevents renal damage”; the “renal crystal deposition, polarized light microscopy” value is “prevention of crystal deposition; also recorded: prevents renal crystal deposition”. Moreover, the reversibility of inhibition result on murine slc26a3 (1 µM for 10 min, then washed three times) is “full reversibility; also recorded: fully and reversibly inhibited”. Also, the IC50 at murine slc26a3 (selected class A analogs, Table 1, Cl-/I- exchange, read-out: IC50) was determined as 150 nM. For the same compound, the IC50 at murine slc26a3 (summary statement, read-out: IC50 for inhibition of SLC26A3-mediated anion exchange) was 100 to 200 nM. Further, the “4 hour urine oxalate/creatinine ratio (hyperoxaluria)” value in test [2] (5 mg/kg oral gavage with sodium oxalate 1 µmol/kg) was “largely prevented hyperoxaluria”.

In the case of `Cc1c(CC(=O)O)c(=O)oc2c(C)c(OCc3cccc(I)c3)ccc12` [DRAinh-A270], the “development of renal failure” value in test [1] (intraperitoneally twice daily for 14 days) was “prevents development of renal failure; also recorded: prevents weight loss, hyperoxaluria and renal failure”. Moreover, the “body weight change compared to Day 0” value in test [1] (intraperitoneally twice daily for 14 days, Day 7 and Day 14) was “maintained their weight better; also recorded: prevents weight loss, hyperoxaluria and renal failure”. Moreover, the “3-hour urine oxalate / creatinine ratio” value in test [1] (intraperitoneally twice daily, Day 7 vs Day 0) was “largely prevented development of hyperoxaluria; also recorded: prevents weight loss, hyperoxaluria and renal failure”. Further, the serum creatinine result in test [1] (intraperitoneally twice daily, Day 14) was “normal serum creatinine”. The “potency compared to Compound A1 (DRAinh-A250)” value on murine slc26a3 (FIG. 9) is recorded as “four-fold improved potency”. Moreover, the IC50 was about 50 nM on murine slc26a3 (FIG. 9 concentration-inhibition curves, read-out: IC50 for slc26a3-mediated Cl-/I- exchange) and 40 nM at murine slc26a3 (representative Class A compounds, Table 3, read-out: IC50). For the same compound, the “4-hour urine oxalate/creatinine ratio (hyperoxaluria)” value in test [2] (10 mg/kg intraperitoneally, sodium oxalate 2.5 µmol/kg oral) is “largely prevented hyperoxaluria”.
